Data as given in PubChem BioAssay AID1918999 (Molecular Pharmacology Branch, DTP, NCI, 2023).

Tested on: 556581-035-R-J1-PDC complex spheroid growth
Assay: Anticancer human tumor 556581-035-R-J1-PDC patient-derived ovarian carcinoma cell line growth inhibition [AhR]
Conditions: for IC50: curve of first compound; for viability, T/C: stronger effect = lower value
Description: Multicellular complex tumor spheroid response to aryl hydrocarbon receptor antagonists in combination with a variety of drugs and investigational agents in selected tumor cell lines
The current study was undertaken to assess response to aryl hydrocarbon receptor antagonists in combination with standard-of-care drugs and investigational agents in solid tumor complex spheroid models. Complex spheroids include a stromal component modeled by human endothelial cells (HUVEC) and fibroblasts modeled by human mesenchymal stem cells (MSCs). The concentration ranges selected for each drug and investigational agent were based upon clinically achievable concentrations if the clinical Cmax of the agent was known.
Compounds. The drugs and investigational agents: BAY 2416964 (NSC825713), GNF351 (NSC835774), CH-223191 (NSC835775), CPI-455 (NSC825282), aza-TdCyd (NSC777586), decitabine (NSC127716), belinostat (NSC758774), entinostat (NSC756642), pevonedistat (NSC761192), tazemetostat (NSC777109), talazoparib (NSC765396), olaparib (NSC753686), selinexor (NSC780203), nedisertib (M3814, NSC802822), bortezomib (NSC756655), venetoclax (NSC766270), doxorubicin (NSC123127), elimusertib (BAY189344, NSC800525), ceralasertib (AZD6738, NSC777638), TAK-243 (NSC785004), alisertib (NSC759677), etoposide (NSC141540), topotecan (NSC609699), eribulin (NSC707389), gemcitabine (NSC613327), carboplatin (NSC241240), cisplatin (NSC119875), and SN-38 (NSC673596) were obtained from the National Cancer Institute (NCI) Developmental Therapeutics Program Chemical Repository (32). The FDA-approved anticancer drug set is available from the Developmental Therapeutics Program at https://dtp.cancer.gov/organization/dscb/obtaining/available plates.htm. […] The stock solutions were prepared in dimethyl sulfoxide (DMSO, Sigma-Aldrich, St. Louis, MO, cat. D2650), except for the platinum compounds which were prepared in saline (Quality Biological, Gaithersburg, MD, cat. 114-055-101), at 800-fold the tested concentration and stored at -70 degrees C prior to their use. All drugs and investigational agents were tested over a range starting from a high concentration at or near the clinical Cmax and decreasing in half-log increments. If the clinical Cmax for an agent had not been determined, the highest concentration tested was 10 microM (Table 1).
Cell Culture. All cells were maintained in an incubator at 37 degrees C and 5% CO2 with 95% humidity. The PDC lines were cultured according to standard operating procedures established by the NCI PDMR (https://pdmr.cancer.gov). Briefly, all PDCs were thawed and cultured in Matrigel-coated flasks prepared with a working solution of 1X Ham's F-12 nutrient mix, without supplementation (Invitrogen, Waltham, MA, cat. 11765054), 100 U/mL penicillin-streptomycin (Invitrogen, cat. 15140122), and 2.5% Matrigel (Corning Inc., Corning, NY, cat. 354248) for the first three passages. All PDCs were cultured in complete DMEM/F-12 media containing advanced DMEM/F-12 (Invitrogen, cat. 12634028), 4.9% defined fetal bovine serum, heat inactivated (HyClone Laboratories Inc., Logan, UT, cat. SH30070.03HI), 389 ng/mL hydrocortisone (Sigma-Aldrich, cat. H4001), 9.7 ng/mL human EGF recombinant protein (Invitrogen, cat. PHG0313), 23.4 microg/mL adenine (Sigma-Aldrich, cat. A2786), 97.3 U/mL penicillin-streptomycin (Invitrogen, cat. 15140122), 1.9 mM L-glutamine (Invitrogen, cat. 25030081), and 9.7 microM Y-27632 dihydrochloride (Tocris Bioscience, Bristol, United Kingdom, cat. 1254). The PDCs were cultured in complete DMEM/F12 media without 10 microM Y-27632 dihydrochloride for at least two passages prior to the screen. The established cell lines NCI-H1341 and […] were cultured in DMEM/F-12, HEPES (Invitrogen, cat. 11330032), 5% defined fetal bovine serum (HyClone Laboratories Inc., cat. SH30070.03), ITS premix universal culture supplement [insulin (5 microg/mL), transferrin (5 microg/mL), and selenious acid (5 ng/mL)] […]
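Wherever viability, T/C is given: compound exposure lasted 7 days; 100% = DMSO vehicle control growth.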

CCc1c2c(nc3ccc(O)cc13)-c1cc3c(c(=O)n1C2)COC(=O)[C@]3(O)CC + CC(CO)NC(=O)c1cc(-c2ccc(Cl)cc2)nn(-c2cnn(C)c2)c1=O
IC50 (second compound 0.1 µM): 11.7 nM | IC50 (second compound 0.316 µM): 16.4 nM | IC50 (second compound 1 µM): 15.7 nM | IC50 (second compound 3.16 µM): 11.5 nM | IC50 (second compound 10 µM): 12.1 nM | viability, T/C (second compound 0.1 µM, first compound 0.000949 µM): 77.2% | viability, T/C (second compound 0.1 µM, first compound 0.003 µM): 73.5% | viability, T/C (second compound 0.1 µM, first compound 0.00949 µM): 49.5% | viability, T/C (second compound 0.1 µM, first compound 0.03 µM): 36.7% | viability, T/C (second compound 0.1 µM, first compound 0.0949 µM): 19.2% | viability, T/C (second compound 0.1 µM, first compound 0.3 µM): 11.6% | viability, T/C (second compound 0.316 µM, first compound 0.000949 µM): 81.5% | viability, T/C (second compound 0.316 µM, first compound 0.003 µM): 79.6% | viability, T/C (second compound 0.316 µM, first compound 0.00949 µM): 60.7% | viability, T/C (second compound 0.316 µM, first compound 0.03 µM): 36.9% | viability, T/C (second compound 0.316 µM, first compound 0.0949 µM): 20.6% | viability, T/C (second compound 0.316 µM, first compound 0.3 µM): 12.1% | viability, T/C (second compound 1 µM, first compound 0.000949 µM): 77.3% | viability, T/C (second compound 1 µM, first compound 0.003 µM): 74.2% | viability, T/C (second compound 1 µM, first compound 0.00949 µM): 59.5% | viability, T/C (second compound 1 µM, first compound 0.03 µM): 36.8% | viability, T/C (second compound 1 µM, first compound 0.0949 µM): 21.4% | viability, T/C (second compound 1 µM, first compound 0.3 µM): 11.3% | viability, T/C (second compound 3.16 µM, first compound 0.000949 µM): 73.6% | viability, T/C (second compound 3.16 µM, first compound 0.003 µM): 67% | viability, T/C (second compound 3.16 µM, first compound 0.00949 µM): 52.6% | viability, T/C (second compound 3.16 µM, first compound 0.03 µM): 34.9% | viability, T/C (second compound 3.16 µM, first compound 0.0949 µM): 18% | viability, T/C (second compound 3.16 µM, first compound 0.3 µM): 9.46% | viability, T/C (second compound 10 µM, first compound 0.000949 µM): 80.2% | viability, T/C (second compound 10 µM, first compound 0.003 µM): 69.9% | viability, T/C (second compound 10 µM, first compound 0.00949 µM): 56.9% | viability, T/C (second compound 10 µM, first compound 0.03 µM): 30% | viability, T/C (second compound 10 µM, first compound 0.0949 µM): 18% | viability, T/C (second compound 10 µM, first compound 0.3 µM): 8.73%

O=C(c1cc(Cc2n[nH]c(=O)c3ccccc23)ccc1F)N1CCN(C(=O)C2CC2)CC1 + CC(CO)NC(=O)c1cc(-c2ccc(Cl)cc2)nn(-c2cnn(C)c2)c1=O
IC50 (second compound 0.1 µM): > 10000 nM | IC50 (second compound 0.316 µM): > 10000 nM | IC50 (second compound 1 µM): > 10000 nM | IC50 (second compound 3.16 µM): > 10000 nM | IC50 (second compound 10 µM): > 10000 nM | viability, T/C (second compound 0.1 µM, first compound 0.0316 µM): 93.7% | viability, T/C (second compound 0.1 µM, first compound 0.1 µM): 94.6% | viability, T/C (second compound 0.1 µM, first compound 0.316 µM): 93% | viability, T/C (second compound 0.1 µM, first compound 1 µM): 85.1% | viability, T/C (second compound 0.1 µM, first compound 3.16 µM): 83.7% | viability, T/C (second compound 0.1 µM, first compound 10 µM): 82.4% | viability, T/C (second compound 0.316 µM, first compound 0.0316 µM): 91.9% | viability, T/C (second compound 0.316 µM, first compound 0.1 µM): 98% | viability, T/C (second compound 0.316 µM, first compound 0.316 µM): 93% | viability, T/C (second compound 0.316 µM, first compound 1 µM): 89.3% | viability, T/C (second compound 0.316 µM, first compound 3.16 µM): 81.4% | viability, T/C (second compound 0.316 µM, first compound 10 µM): 84.3% | viability, T/C (second compound 1 µM, first compound 0.0316 µM): 93.9% | viability, T/C (second compound 1 µM, first compound 0.1 µM): 108% | viability, T/C (second compound 1 µM, first compound 0.316 µM): 95.2% | viability, T/C (second compound 1 µM, first compound 1 µM): 95% | viability, T/C (second compound 1 µM, first compound 3.16 µM): 90.1% | viability, T/C (second compound 1 µM, first compound 10 µM): 73.2% | viability, T/C (second compound 3.16 µM, first compound 0.0316 µM): 90.2% | viability, T/C (second compound 3.16 µM, first compound 0.1 µM): 89.7% | viability, T/C (second compound 3.16 µM, first compound 0.316 µM): 94.2% | viability, T/C (second compound 3.16 µM, first compound 1 µM): 84% | viability, T/C (second compound 3.16 µM, first compound 3.16 µM): 81.4% | viability, T/C (second compound 3.16 µM, first compound 10 µM): 74.4% | viability, T/C (second compound 10 µM, first compound 0.0316 µM): 106% | viability, T/C (second compound 10 µM, first compound 0.1 µM): 105% | viability, T/C (second compound 10 µM, first compound 0.316 µM): 85.2% | viability, T/C (second compound 10 µM, first compound 1 µM): 99.5% | viability, T/C (second compound 10 µM, first compound 3.16 µM): 79.1% | viability, T/C (second compound 10 µM, first compound 10 µM): 77.6%
